Assay results as given in patent US10280167B2, “Purine derivatives for the treatment of viral infections” (JANSSEN SCIENCES IRELAND UC, priority 2011, dated 2019).
pEC50: −log10 of the molar value.

Key:
Format in all cases: cell-based
human TLR7 [1] = molecular target: T1, human TLR7 (Homo sapiens (Human), UniProt Q9NYK1); test: Reporter assay for TLR7 activity, HEK293 transiently transfected with wild type TLR7 and NFκB-luc; conditions: lowest effective concentration; 48 h transfection
[2] = system: Huh-7 luc/neo HCV replicon cells with conditioned media from PBMC; test: Interferon production in human PBMC (PBMC-HUH7_EC50), HCV replicon readout with conditioned media; conditions: concentration applied to PBMCs giving 50% reduction of replicon luciferase activity
Description: Measurement of Interferon Production in Human PBMC (PBMC-HUH7_EC50)
Activation of human TLR7 results in robust production of interferon by plasmacytoid dendritic cells present in human blood. The potential of compounds to induce interferon was evaluated by looking at the antiviral activity in the HCV replicon system upon incubation with conditioned media from peripheral blood mononuclear cells (PBMC). The HCV replicon assay is based on a bicistronic expression construct, as described by Lohmann et al. (Science (1999) 285: 110-113; Journal of Virology (2003) 77: 3007-15 3019) with modifications described by Krieger et al. (Journal of Virology (2001) 75: 4614-4624). The assay utilized the stably transfected cell line Huh-7 luc/neo harboring an RNA encoding a bicistronic expression construct comprising the wild type NS3-NS5B regions of HCV type 1b translated from an Internal Ribosome Entry Site (IRES) from encephalomyocarditis virus (EMCV), preceded by a reporter gene (Firefly-luciferase) and a selectable marker gene (neoR, neomycine phosphotransferase). The construct is flanked by 5′ and 3′ NTRs (non-translated regions) from HCV type 1b. Continued culture of the replicon cells in the presence of G418 (neoR) is dependent on the replication of the HCV RNA. The stably transfected replicon cells that replicate HCV RNA autonomously and to high levels, encoding inter alia luciferase, were used for profiling of the conditioned cell culture media. Briefly, PBMCs were prepared from buffy coats of at least two donors using a standard Ficoll centrifugation protocol. Isolated PBMCs were resuspended in RPMI medium supplemented with 10% human AB serum and 2×10^5 cells/well were dispensed into 384-well plates containing compounds (70 μL total volume). After overnight incubation, […] was transferred to 384-well plates containing 2.2×10^3 replicon cells/well in 30 μL (plated the day before). Following 24 hours of incubation, replication was measured by assaying luciferase activity using 40 μL/well Steady Lite Plus substrate (Perkin Elmer) and measured with ViewLux ultraHTS microplate imager (Perkin Elmer). The inhibitory activity of each compound on the Huh7-luc/neo cells were reported as EC50 values, defined as the compound concentration applied to the PBMCs resulting in a 50% reduction of luciferase activity which in turn indicates the degree of replication of the replicon RNA on transfer of a defined amount of PBMC culture medium. Recombinant interferon α-2a (Roferon-A) was used as a standard control compound.

human TLR7 dIRR2 mutant [3] = test: Reporter assay for TLR7 activity, HEK293 transfected with mutant TLR7 (dIRR2 deletion) and NFκB-luc; conditions: lowest effective concentration; 48 h transfection
human TLR7 dIRR2 mutant [4] = test: as above; conditions: lowest effective concentration; 24 h transfection
Description: (§1) Reporter Assays for Assessment of TLR7 Activity (24 h)
(§2) The ability of compounds to activate human TLR7 was assessed in a cellular reporter assay using HEK293 cells transiently transfected with a TLR7 or TLR8 expression vector and NFκB-luc reporter construct. In one instance the TLR expression construct expresses the respective wild type sequence or a mutant sequence comprising a deletion in the second leucine-rich repeat (dIRR2) of the TLR.
(§3) Briefly, HEK293 cells were grown in culture medium (DMEM supplemented with 10% FCS and 2 mM Glutamine). For transfection of cells in 10 cm dishes, cells were detached with Trypsin-EDTA, transfected with a mix of CMV-TLR7 or TLR8 plasmid (750 ng), NFκB-luc plasmid (375 ng) and a transfection reagent and incubated 24 hours or 48 hours respectively at 37° C. in a humidified 5% CO2 atmosphere. Transfected cells were then detached with Trypsin-EDTA, washed in PBS and resuspended in medium to a density of 1.67×10^5 cells/mL. Thirty microliters of cells were then dispensed into each well in 384-well plates, where 10 μL of compound in 4% DMSO was already present. Following 6 hours incubation at 37° C., 5% CO2, the luciferase activity was determined by adding 15 μl of Steady Lite Plus substrate (Perkin Elmer) to each well and readout performed on a ViewLux ultraHTS microplate imager (Perkin Elmer). Dose response curves were generated from measurements performed in quadruplicates. Lowest effective concentrations (LEC) values, defined as the concentration that induces an effect which is at least two fold above the standard deviation of the assay, were determined for each compound. Compound toxicity was determined in parallel using a similar dilution series of compound with 30 μL per well of cells transfected with the CMV-TLR7 construct alone (1.67×10^5 cells/mL), in 384-well plates. Cell viability was measured after 6 hours incubation at 37° C., 5% CO2 by adding 15 μL of ATP lite (Perkin Elmer) per well and reading on a ViewLux ultraHTS microplate imager (Perkin Elmer). Data was reported as CC50.

[5] = system: HEK-ISRE-luc cells with conditioned media from PBMC; test: Interferon production in human PBMC (PBMC HEK-ISRE-luc LEC); conditions: lowest effective concentration; for minimal effective concentration: Homo sapiens, PBMC, read-out: PBMC HEK-ISRE-luc (LEC)
Description: Measurement of Interferon Production in Human PBMC (PBMC HEK-ISRE-Luc LEC)
Activation of human TLR7 results in robust production of interferon by plasmacytoid dendritic cells present in human blood. The potential of compounds to induce interferon was evaluated by determination of interferon in the conditioned media from peripheral blood mononuclear cells (PBMC). The presence of interferon in the samples was determined, using an interferon reporter cell line stably expressing an interferon-stimulated responsive elements (ISRE)-luc reporter construct. The ISRE element with sequence GAAACTGAAACT (SEQ ID NO: 1) is highly responsive to the STAT1-STAT2-IRF9 transcription factor, which becomes activated upon binding of IFN-I to the IFN receptor. Briefly, PBMCs were prepared from buffy coats of at least two donors using a standard Ficoll centrifugation protocol. Isolated PBMCs were resuspended in RPMI medium supplemented with 10% human AB serum and 2×10^5 cells/well were dispensed into 384-well plates containing compounds (70 μL total volume). After overnight incubation of the PBMCs with the compounds, 10 μL of supernatant was transferred to 384-well plates containing 5×10^3 HEK-ISRE-luc cells/well in 30 μL (plated the day before). Following 24 hours of incubation, activation of the ISRE elements was measured by assaying luciferase activity using 40 μL/well Steady Lite Plus substrate (Perkin Elmer) and measured with ViewLux ultraHTS microplate imager (Perkin Elmer). The stimulating activity of each compound on the HEK-ISRE-luc cells was reported as LEC. The LEC in turn indicates the degree of ISRE activation on transfer of a defined amount of PBMC culture medium.
Recombinant interferon alfa-2a (Roferon-A) was used as a standard control compound.

human TLR7 [6] = molecular target: T1, human TLR7; test: Reporter assay for TLR7 activity, HEK293 transiently transfected with wild type TLR7 and NFκB-luc; conditions: lowest effective concentration; 24 h transfection
Description: as §1, §2, §3

HEK293 NFκB-luc = test: Reporter assay HEK293 NFκB-luc; conditions: greater than the highest tested concentration
TLR8 = test: Reporter assay HEK293 TLR8-NFκB-luc; conditions: greater than the highest tested concentration
Description: as §2
Briefly, HEK293 cells were grown in culture medium (DMEM supplemented with 10% FCS and 2 mM Glutamine). […] Following 6 hours incubation at 37° C., 5% CO2, the luciferase activity was determined by adding 15 μl of Steady Lite Plus substrate (Perkin Elmer) to each well and readout performed on a ViewLux ultraHTS microplate imager (Perkin Elmer). […] Lowest effective concentrations (LEC) values, defined as the concentration that induces an effect which is at least two fold above the standard deviation of the assay, were determined for each compound. Compound toxicity was determined in parallel using a similar dilution series of compound with 30 μL per well of cells transfected with the CMV-TLR7 construct alone (1.67×10^5 cells/mL), in 384-well plates. Cell viability was measured after 6 hours incubation at 37° C., 5% CO2 by adding 15 μL of ATP lite (Perkin Elmer) per well and reading on a ViewLux ultraHTS microplate imager (Perkin Elmer). […]

T1 sequence (Q9NYK1 27-1049): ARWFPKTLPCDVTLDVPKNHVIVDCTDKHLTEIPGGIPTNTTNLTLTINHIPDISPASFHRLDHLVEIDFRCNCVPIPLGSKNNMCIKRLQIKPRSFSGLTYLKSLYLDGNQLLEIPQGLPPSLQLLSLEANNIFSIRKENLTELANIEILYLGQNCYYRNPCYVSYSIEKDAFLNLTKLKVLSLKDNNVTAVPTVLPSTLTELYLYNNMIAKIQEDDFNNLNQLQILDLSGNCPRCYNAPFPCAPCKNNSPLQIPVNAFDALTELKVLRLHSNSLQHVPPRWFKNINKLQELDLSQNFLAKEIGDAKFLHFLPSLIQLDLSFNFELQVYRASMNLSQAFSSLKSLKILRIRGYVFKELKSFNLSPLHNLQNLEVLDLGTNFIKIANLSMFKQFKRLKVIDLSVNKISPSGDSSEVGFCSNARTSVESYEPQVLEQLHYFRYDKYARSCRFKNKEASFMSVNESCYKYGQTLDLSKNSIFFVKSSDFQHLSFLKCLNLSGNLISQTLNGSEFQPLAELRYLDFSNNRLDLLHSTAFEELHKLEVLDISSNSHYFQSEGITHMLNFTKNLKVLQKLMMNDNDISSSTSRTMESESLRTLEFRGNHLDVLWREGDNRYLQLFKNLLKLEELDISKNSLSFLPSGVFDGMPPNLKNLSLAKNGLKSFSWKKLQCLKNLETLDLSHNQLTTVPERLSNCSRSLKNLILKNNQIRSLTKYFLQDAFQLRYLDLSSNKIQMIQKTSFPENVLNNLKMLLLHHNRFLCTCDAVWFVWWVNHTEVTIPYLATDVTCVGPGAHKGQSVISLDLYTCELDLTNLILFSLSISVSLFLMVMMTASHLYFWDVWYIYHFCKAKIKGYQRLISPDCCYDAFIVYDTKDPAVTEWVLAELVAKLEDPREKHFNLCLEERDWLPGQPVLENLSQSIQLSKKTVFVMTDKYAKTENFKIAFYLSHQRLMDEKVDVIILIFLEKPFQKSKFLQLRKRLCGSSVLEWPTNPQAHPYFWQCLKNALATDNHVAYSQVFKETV

SMILES	TLR7-wt_LEC 48 h (human TLR7 [1])	pEC50 ([2]; Homo sapiens, Huh-7)	TLR7-dIRR2_LEC 48 h (human TLR7 dIRR2 mutant [3])	TLR7-dIRR2_LEC 24 h (human TLR7 dIRR2 mutant [4])	minimal effective concentration [5]	TLR7-wt_LEC 24 h (human TLR7 [6])	LEC on HEK293 NFκB-luc (HEK293 NFκB-luc)	LEC on HEK293 TLR8-NFκB-luc (TLR8)	pEC50 [2]	PBMC HEK-ISRE-luc (LEC) [5]
Nc1nc(-c2nc(C3CC3)c[nH]2)nc2c1[nH]c(=O)n2Cc1ccccc1 [Compound 1]	8.25 µM	7.09	0.18 µM	0.33 µM	0.064 µM	–	–	–	–	–
Nc1nc(-c2nc(-c3ccccc3)c[nH]2)nc2c1[nH]c(=O)n2Cc1ccccc1 [Compound 2]	–	6.27	–	1.2 µM	–	4.72 µM	–	–	–	–
Nc1nc(-c2nc(C3CCCC3)c[nH]2)nc2c1[nH]c(=O)n2Cc1ccccc1 [Compound 3]	–	4.85	–	7.67 µM	–	>24.59 µM	–	–	–	–
Nc1nc(-c2ncc[nH]2)nc2c1[nH]c(=O)n2Cc1ccccc1 [Compound 4]	1.23 µM	6.80	0.04 µM	0.077 µM	0.12 µM	–	–	–	–	–
Cc1[nH]c(-c2nc(N)c3[nH]c(=O)n(Cc4ccccc4)c3n2)nc1C1CC1 [Compound 5]	21.47 µM	6.70	1.13 µM	2.2 µM	0.13 µM	–	–	–	–	–
CCc1[nH]c(-c2nc(N)c3[nH]c(=O)n(Cc4ccccc4)c3n2)nc1C1CC1 [Compound 6]	6.32 µM	7.28	0.34 µM	0.66 µM	0.04 µM	–	> 10 µM	> 10 µM	–	–
Nc1nc(-c2nc(C3CC3)c[nH]2)nc2c1[nH]c(=O)n2CC1CCOCC1 [Compound 10]	>25 µM	6.14	10.13 µM	18.93 µM	0.44 µM	–	–	–	–	–
Nc1nc(-c2cncnc2)nc2c1[nH]c(=O)n2Cc1ccccc1 [Compound 15]	>25 µM	4.77	9.75 µM	10.57 µM	–	>24.59 µM	–	–	–	–
Nc1nc(-c2ccc[nH]2)nc2c1[nH]c(=O)n2Cc1ccccc1 [Compound 18]	20.31 µM	5.59	3.81 µM	3.23 µM	–	>24.59 µM	–	–	–	–
Nc1nc(-c2cn[nH]c2)nc2c1[nH]c(=O)n2Cc1ccccc1 [Compound 19]	>25 µM	4.91	16.6 µM	13.31 µM	–	>24.59 µM	–	–	–	–
Nc1nc(-c2ccco2)nc2c1[nH]c(=O)n2Cc1ccccc1 [Compound 20]	6.34 µM	6.17	0.5 µM	0.5 µM	–	–	–	–	–	–
Nc1nc(-n2cccn2)nc2c1[nH]c(=O)n2Cc1ccccc1 [Compound 36]	0.22 µM	7.33	0.017 µM	–	0.033 µM	–	–	–	–	–
CN(C)CCOc1ccc(Cn2c(=O)[nH]c3c(N)nc(-c4nc(C5CC5)c[nH]4)nc32)cn1 [Compound 54]	16.1 µM	7.30	5.65 µM	–	0.07 µM	–	–	–	–	–
COC(=O)COc1ccc(Cn2c(=O)[nH]c3c(N)nc(-c4ncc[nH]4)nc32)cn1 [Compound 57]	0.44 µM	5.92	0.06 µM	–	1.38 µM	–	–	–	–	–
Nc1nc(-c2ncc[nH]2)nc2c1[nH]c(=O)n2Cc1ccc(OCC(=O)O)nc1 [Compound 58]	0.99 µM	5.56	0.06 µM	–	2.69 µM	–	–	–	–	–
Nc1nc(-c2nc(C3CC3)c[nH]2)nc2c1[nH]c(=O)n2Cc1ccc2c(c1)CNCC2 [Compound 60]	>25 µM	7.47	1.25 µM	–	0.019 µM	–	–	–	–	–
CN1CCN(CCCCCn2c(=O)[nH]c3c(N)nc(-c4ncc[nH]4)nc32)CC1 [Compound 61]	>25 µM	–	9.73 µM	–	–	–	–	–	5.87	0.95 µM
Nc1nc(-c2nc(C3CC3)c[nH]2)nc2c1[nH]c(=O)n2CCCCCCN1CCCC1 [Compound 62]	21.2 µM	6.15	>25 µM	–	0.72 µM	–	–	–	–	–
Nc1nc(-c2ncc[nH]2)nc2c1[nH]c(=O)n2CC1CCOCC1 [Compound 63]	>25 µM	5.17	2.58 µM	–	4.39 µM	–	–	–	–	–
